Data reported in patent US20260207615A1, “FLUOROPYRIDOPYRIMIDINE AND FLUOROQUINAZOLINE DERIVATIES AND METHODS OF USE THEREOF” (Frontier Medicines Corporation, priority 2022, published 2026).

Target: T1, KRAS G12C and cRAF interaction (Homo sapiens, UniProt P01116, C118S/C51S/C80L/G12C)
T1 construct: truncated version comprising amino acids 1-169
Test: Inhibition of KRAS G12C and cRAF binding (AlphaScreen)
Assay type: biochemical
Conditions: KRAS G12C (Cys-light, aa 1-169) preloaded with GMPPNP, cRaf RBD (aa 50-131), 2 hours incubation
In short: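 Biotin-AviTag KRAS G12C (Cys-light C51S/C80L/C118S, aa 1-169, GMPPNP-loaded; 0.5 nM final)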

T1 sequence (P01116 1-169 isoform P01116-2 G12C/C51S/C80L/C118S): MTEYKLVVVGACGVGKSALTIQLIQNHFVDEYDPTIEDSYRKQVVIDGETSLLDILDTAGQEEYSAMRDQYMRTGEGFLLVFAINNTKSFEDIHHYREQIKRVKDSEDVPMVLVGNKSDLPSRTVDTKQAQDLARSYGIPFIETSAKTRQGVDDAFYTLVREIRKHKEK

Row | Structure (SMILES) | IC50
1 | O=C(/C=C/CN1CCOCC1)N1CCN(c2nc(OC[C@@]34CCCN3C[C@H](F)C4)nc3c(F)c(-c4cc(O)cc(Cl)c4C4CC4)ncc23)CC12COC2 [Example 30, (E)-1-(8-(7-(3-chloro-2-cyclopropyl-5-hydroxyphenyl)-8-fluoro-2-(((2R,7aS)-2-fluorotetrahydro-1H-pyrrolizin-7a(5H)-yl)methoxy)pyrido[4,3-d]pyrimidin-4-yl)-2-oxa-5,8-diazaspiro[3.5]nonan-5-yl)-4-morpholinobut-2-en-1-one] | < 10 nM
2 | O=C(/C=C/CN1CCOCC1)N1CCN(c2nc(OC[C@@]34CCCN3C[C@H](F)C4)nc3c(F)c(-c4cccc5ccc(F)c(F)c45)ncc23)CC12COC2 [Example 18, (E)-1-(8-(7-(7,8-difluoronaphthalen-1-yl)-8-fluoro-2-(((2R,7aS)-2-fluorotetrahydro-1H-pyrrolizin-7a(5H)-yl)methoxy)pyrido[4,3-d]pyrimidin-4-yl)-2-oxa-5,8-diazaspiro[3.5]nonan-5-yl)-4-morpholinobut-2-en-1-one] | 10 to 100 nM
3 | CN1CC[C@@H]1/C=C/C(=O)N1CCN(c2nc(OC[C@@]34CCCN3C[C@H](F)C4)nc3c(F)c(-c4cccc5cccc(Cl)c45)ncc23)CC12COC2 [Example 37, (E)-1-(8-(7-(8-chloronaphthalen-1-yl)-8-fluoro-2-(((2R,7aS)-2-fluorotetrahydro-1H-pyrrolizin-7a(5H)-yl)methoxy)pyrido[4,3-d]pyrimidin-4-yl)-2-oxa-5,8-diazaspiro[3.5]nonan-5-yl)-3-((R)-1-methylazetidin-2-yl) prop-2-en-1-one] | 10 to 100 nM
4 | Cc1nccc(/C=C/C(=O)N2CCN(c3nc(OC[C@@]45CCCN4C[C@H](F)C5)nc4c(F)c(-c5cccc6cccc(Cl)c56)ncc34)CC23COC3)n1 [Example 2, (E)-1-(8-(7-(8-chloronaphthalen-1-yl)-8-fluoro-2-(((2R,7aS)-2-fluorotetrahydro-1H-pyrrolizin-7a(5H)-yl)methoxy)pyrido[4,3-d]pyrimidin-4-yl)-2-oxa-5,8-diazaspiro[3.5]nonan-5-yl)-3-(2-methylpyrimidin-4-yl) prop-2-en-1-one] | 100 to 500 nM
5 | CO[C@@H]1CCN(C/C=C/C(=O)N2CCN(c3nc(OC[C@@]45CCCN4C[C@H](F)C5)nc4c(F)c(-c5cccc6ccc(F)c(Cl)c56)ncc34)CC23COC3)C1 [Example 8, (E)-1-(8-(7-(8-chloro-7-fluoronaphthalen-1-yl)-8-fluoro-2-(((2R,7aS)-2-fluorotetrahydro-1H-pyrrolizin-7a(5H)-yl)methoxy)pyrido[4,3-d]pyrimidin-4-yl)-2-oxa-5,8-diazaspiro[3.5]nonan-5-yl)-4-((R)-3-methoxypyrrolidin-1-yl) but-2-en-1-one] | 10 to 100 nM
6 | O=C(/C=C/CN1[C@@H]2CC[C@H]1COC2)N1CCN(c2nc(OC[C@@]34CCCN3C[C@H](F)C4)nc3c(F)c(-c4cccc5cccc(Cl)c45)ncc23)CC12COC2 [Example 4, (E)-4-((1R,5S)-3-oxa-8-azabicyclo[3.2.1]octan-8-yl)-1-(8-(7-(8-chloronaphthalen-1-yl)-8-fluoro-2-(((2R,7aS)-2-fluorotetrahydro-1H-pyrrolizin-7a(5H)-yl)methoxy)pyrido[4,3-d]pyrimidin-4-yl)-2-oxa-5,8-diazaspiro[3.5]nonan-5-yl) but-2-en-1-one] | < 10 nM
7 | Cc1cc(/C=C/C(=O)N2CCN(c3nc(OC[C@@]45CCCN4C[C@H](F)C5)nc4c(F)c(-c5cccc6ccc(F)c(Cl)c56)ncc34)CC23COC3)nc(C)n1 [Example 27, (E)-1-(8-(7-(8-chloro-7-fluoronaphthalen-1-yl)-8-fluoro-2-(((2R,7aS)-2-fluorotetrahydro-1H-pyrrolizin-7a(5H)-yl)methoxy)pyrido[4,3-d]pyrimidin-4-yl)-2-oxa-5,8-diazaspiro[3.5]nonan-5-yl)-3-(2,6-dimethylpyrimidin-4-yl) prop-2-en-1-one] | 10 to 100 nM
8 | Cc1nccc(/C=C/C(=O)N2CCN(c3nc(OC[C@@]45CCCN4C[C@H](F)C5)nc4c(F)c(-c5cccc6ccc(F)c(Cl)c56)ncc34)CC23COC3)n1 [Example 6, (E)-1-(8-(7-(8-chloro-7-fluoronaphthalen-1-yl)-8-fluoro-2-(((2R,7aS)-2-fluorotetrahydro-1H-pyrrolizin-7a(5H)-yl)methoxy)pyrido[4,3-d]pyrimidin-4-yl)-2-oxa-5,8-diazaspiro[3.5]nonan-5-yl)-3-(2-methylpyrimidin-4-yl) prop-2-en-1-one] | 10 to 100 nM
9 | O=C(/C=C/CN1CCOCC1)N1CCN(c2nc(OC[C@@]34CCCN3C[C@H](F)C4)nc3c(F)c(-c4cccc5cccc(Cl)c45)ncc23)CC12COC2 [Example 12, (E)-1-(8-(7-(8-chloronaphthalen-1-yl)-8-fluoro-2-(((2R,7aS)-2-fluorotetrahydro-1H-pyrrolizin-7a(5H)-yl)methoxy)pyrido[4,3-d]pyrimidin-4-yl)-2-oxa-5,8-diazaspiro[3.5]nonan-5-yl)-4-morpholinobut-2-en-1-one] | ≥ 500 nM
10 | O=C(/C=C/CN1[C@@H]2CC[C@H]1COC2)N1CCN(c2nc(OC[C@@]34CCCN3C[C@H](F)C4)nc3c(F)c(-c4cccc5ccc(F)c(Cl)c45)ncc23)CC12COC2 [Example 23, (E)-4-((1R,5S)-3-oxa-8-azabicyclo[3.2.1]octan-8-yl)-1-(8-(7-(8-chloro-7-fluoronaphthalen-1-yl)-8-fluoro-2-(((2R,7aS)-2-fluorotetrahydro-1H-pyrrolizin-7a(5H)-yl)methoxy)pyrido[4,3-d]pyrimidin-4-yl)-2-oxa-5,8-diazaspiro[3.5]nonan-5-yl) but-2-en-1-one] | < 10 nM

More lines, now with the values ahead:

Row | IC50 | Structure (SMILES)
11 | < 10 nM | O=C(/C=C/CN1C[C@H]2C[C@@H]1CO2)N1CCN(c2nc(OC[C@@]34CCCN3C[C@H](F)C4)nc3c(F)c(-c4cccc(Cl)c4C(F)(F)F)ncc23)CC12COC2 [Example 68, (E)-4-((1R,4R)-2-oxa-5-azabicyclo[2.2.1]heptan-5-yl)-1-(8-(7-(3-chloro-2-(trifluoromethyl)phenyl)-8-fluoro-2-(((2R,7aS)-2-fluorotetrahydro-1H-pyrrolizin-7a(5H)-yl)methoxy)pyrido[4,3-d]pyrimidin-4-yl)-2-oxa-5,8-diazaspiro[3.5]nonan-5-yl) but-2-en-1-one]
12 | < 10 nM | CN(C)C/C=C/C(=O)N1CCN(c2nc(OC[C@@]34CCCN3C[C@H](F)C4)nc3c(F)c(-c4cc(O)cc(Cl)c4C4CC4)ncc23)CC12COC2 [Example 55, (E)-1-(8-(7-(3-chloro-2-cyclopropyl-5-hydroxyphenyl)-8-fluoro-2-(((2R,7aS)-2-fluorotetrahydro-1H-pyrrolizin-7a(5H)-yl)methoxy)pyrido[4,3-d]pyrimidin-4-yl)-2-oxa-5,8-diazaspiro[3.5]nonan-5-yl)-4-(dimethylamino)but-2-en-1-one]
13 | < 10 nM | CN1CC[C@@H]1/C=C/C(=O)N1CCN(c2nc(OC[C@@]34CCCN3C[C@H](F)C4)nc3c(F)c(-c4cc(O)cc(Cl)c4C4CC4)ncc23)CC12COC2 [Example 73, (E)-1-(8-(7-(3-chloro-2-cyclopropyl-5-hydroxyphenyl)-8-fluoro-2-(((2R,7aS)-2-fluorotetrahydro-1H-pyrrolizin-7a(5H)-yl)methoxy)pyrido[4,3-d]pyrimidin-4-yl)-2-oxa-5,8-diazaspiro[3.5]nonan-5-yl)-3-((R)-1-methylazetidin-2-yl) prop-2-en-1-one]
14 | < 10 nM | C#Cc1c(F)ccc2cccc(-c3ncc4c(N5CCN(C(=O)/C(F)=C/c6cc(C)nc(C)n6)C6(COC6)C5)nc(OC[C@@]56CCCN5C[C@H](F)C6)nc4c3F)c12 [Example 63, (Z)-3-(2,6-dimethylpyrimidin-4-yl)-1-(8-(7-(8-ethynyl-7-fluoronaphthalen-1-yl)-8-fluoro-2-(((2R,7aS)-2-fluorotetrahydro-1H-pyrrolizin-7a(5H)-yl)methoxy)pyrido[4,3-d]pyrimidin-4-yl)-2-oxa-5,8-diazaspiro[3.5]nonan-5-yl)-2-fluoroprop-2-en-1-one]
15 | < 10 nM | C=CC(=O)N1CCN(c2nc(OC[C@@]34CCCN3C[C@H](F)C4)nc3c(F)c(-c4cc(O)cc(Cl)c4C4CC4)ncc23)CC12CCOC2 (stereo partly drawn) [Example 85, 1-(9-(7-(3-chloro-2-cyclopropyl-5-hydroxyphenyl)-8-fluoro-2-(((2R,7aS)-2-fluorotetrahydro-1H-pyrrolizin-7a(5H)-yl)methoxy)pyrido[4,3-d]pyrimidin-4-yl)-2-oxa-6,9-diazaspiro[4.5]decan-6-yl) prop-2-en-1-one]
16 | 100 to 500 nM | CN(C)C/C=C/C(=O)N1CCN(c2nc(OC[C@@]34CCCN3C[C@H](F)C4)nc3c(F)c(-c4cccc(Cl)c4C(F)(F)F)ncc23)CC12COC2 [Example 71]
17 | < 10 nM | C#Cc1c(F)ccc2cccc(-c3ncc4c(N5CCN(C(=O)C=C)C6(COC6)C5)nc(OC[C@@]56CCCN5C[C@H](F)C6)nc4c3F)c12 [Example 50, 1-(8-(7-(8-ethynyl-7-fluoronaphthalen-1-yl)-8-fluoro-2-(((2R,7aS)-2-fluorotetrahydro-1H-pyrrolizin-7a(5H)-yl)methoxy)pyrido[4,3-d]pyrimidin-4-yl)-2-oxa-5,8-diazaspiro[3.5]nonan-5-yl) prop-2-en-1-one]
18 | 10 to 100 nM | O=C(/C=C/CN1C[C@@H]2C[C@H]1CO2)N1CCN(c2nc(OC[C@@]34CCCN3C[C@H](F)C4)nc3c(F)c(-c4cccc(Cl)c4C(F)(F)F)ncc23)CC12COC2 [Example 57, (E)-4-((1S,4S)-2-oxa-5-azabicyclo[2.2.1]heptan-5-yl)-1-(8-(7-(3-chloro-2-(trifluoromethyl)phenyl)-8-fluoro-2-(((2R,7aS)-2-fluorotetrahydro-1H-pyrrolizin-7a(5H)-yl)methoxy)pyrido[4,3-d]pyrimidin-4-yl)-2-oxa-5,8-diazaspiro[3.5]nonan-5-yl) but-2-en-1-one]
19 | 100 to 500 nM | C=CC(=O)N1[C@H](C)CN(c2nc(OC[C@@]34CCCN3C[C@H](F)C4)nc3c(F)c(-c4cccc5cccc(Cl)c45)ncc23)CC12COC2 [Example 72]
20 | ≥ 500 nM | C=CC(=O)N1CCN(c2nc(OC[C@@H]3CCCN3C)nc3c(F)c(-c4cccc5cccc(Cl)c45)ncc23)CC12CCOC2 (some centres unmarked) [Example 83]
